In patent US10201610B2, “Interference peptides and use thereof” (The University of Western Australia, priority 2014, dated 2019):
Like-named read-outs stand apart in the source and are kept apart here. Ends that are not written are not given here.

Experiments:
[1] = test system: SUM149PT cells overexpressing the EN1 cDNA (SUM149PT-EN1); test: Cell Titer Glo cell viability assay in SUM149PT cells overexpressing the EN1 cDNA; assay type: cell-based, human; settings: Homo sapiens
Description: (§1) In the neural system it has been proposed that EN1 protects neurons from mitochondrial complex I insults. Likewise, the inventors investigated whether EN1 could play a similar role in the basal-like breast cancer cell lines. The EN1 cDNA was overexpressed in SUM149PT cells using a lentiviral vector, and the transduced cells were treated with increasing concentrations of rotenone, a mitochondrial complex I toxin, and taxol, a […].
(§2) Plasmids expressing the EN1 cDNA (Genecopoeia, vector EX-T1021-Lv07) or EN1 shRNAs (Open Biosystems, pLKO-EN1) were transfected with Gagpol-, VSVG-, and RSV-REV-coding plasmids in HEK 293T cells using Lipofectamine and Plus Reagent cationic lipids (Invitrogen, Carlsbad, Calif.) and transduction of breast cells was performed as described in Beltran, A. S. et al. Breast Cancer Res 13, R94 (2011).
(§3) All peptides were synthetized at the UNC High-Throughput Peptide Synthesis and Array Facility at UNC. Taxol, Rotenone and Halofuginone (Sigma-Aldrich, St Louis, Mo.) were dissolved in DMSO. A total of […] or 1×10^3 breast cells for peptide and drug treatment respectively, were seeded in 96-well plates. Cells were exposed for 8 hours to the peptide and 48 to 72 hours for drug treatment. The cell viability after peptide/drug treatment was assayed with the Cell Titer Glo (CTG) assay (Promega, Madison, Wis., USA).

[2] = test system: SUM149PT control (EGFP) transduced cells (SUM149PT-Control); test: Cell Titer Glo cell viability assay in control transduced SUM149PT cells; assay type: cell-based; settings: Homo sapiens
Description: as §1, §2, §3

SUM149PT cells = test: cells; assay type: cell-based, human; settings: for activity / IC50 as compared with the wt iPep624: Cell Titer Glo
Description: The EN1-iPeps and iPep controls were first tested in SUM149PT cells carrying high EN1 expression. Cells were first treated with a full-length 29-mer peptide (iPep624) comprising the N-terminal, less conserved amino acid sequences, the hexamotif, and the C-terminal tail. As a control, the inventors generated the iPep624ΔHEX in which the hexamotif was mutated from the wild type (wt) WPAWVY (SEQ ID NO: 13) to the GAAGAG (SEQ ID NO: 15) sequence. These mutations were expected to dramatically abolish the activity of the peptide. Both peptides were included in the culture medium of the basal cancer cells in increasing (0-100 μM) concentrations and incubated for 8 hours at 37° C. Treated cells were first analyzed using the Cell Titer Glo assay, which monitors metabolic viability. […] This calculated value of IC50 is in the range of concentrations observed with other peptides delivered with CPPs.
as §3

[3] = test system: panel of breast cancer cell lines; test: Cell Titer Glo cell viability assay, whole panel of breast cancer cell lines; assay type: cell-based; settings: maximum tested concentrations (100 μM), 8 hours
Description: To test the specificity of the EN1-iPep in cell lines expressing EN1, the inventors delivered the iPeps into a panel of breast cancer cell lines expressing different amounts of EN1.
as §3

[4] = SUM149PT, drug treatment 72 hours, read-out: IC50 (cell viability), EN1 cDNA transduced cells
[5] = SUM149PT, drug treatment 72 hours, read-out: IC50 (cell viability), control transduced cells
[6] = Homo sapiens, SUM149PT, 48 hours drug and 8 hours 500 nM iPep682, read-out: IC50 of drug with iPep682
[7] = Homo sapiens, SUM149PT, 48 hours of treatment, read-out: IC50 of drug alone

Compound C=C(C)[C@H]1Cc2c(ccc3c2O[C@@H]2COc4cc(OC)c(OC)cc4[C@@H]2C3=O)O1 [rotenone] has an IC50 [1, 4] of 19.6 µM and an IC50 [2, 5] of 1080 nM.
Compound CC(=O)O[C@H]1C(=O)[C@@]2(C)[C@H]([C@H](OC(=O)c3ccccc3)[C@]3(O)C[C@H](OC(=O)[C@H](O)[C@@H](NC(=O)c4ccccc4)c4ccccc4)C(C)=C1C3(C)C)[C@]1(OC(C)=O)CO[C@@H]1C[C@@H]2O [taxol, reference compound] has an IC50 [1, 4] of 47.8 µM, an IC50 (SUM149PT cells; [6]) of 0.049 µM and an IC50 (SUM149PT cells; [7]) of 7.6 µM. The IC50 [2, 5] was 7240 nM.
“KKKRKVWPAWVYCTRYSDR (SEQ ID NO: 22) (homo sapiens) [iPep697, peptide lacking all the N-terminal residues upstream of the hexamotif]” was tested, and the “activity / IC50 as compared with the wt iPep624” value (SUM149PT cells; SUM149PT) was “less active”.
With KKKRKVPLVWPAWVYCTRYSDRPS [iPep682] the IC50 (SUM149PT cells; 8 h) was 12.5 µM.
With O=c1[nH]cc(F)c(=O)[nH]1 [5-FU, 5-Fluorouracil, reference compound] the IC50 (SUM149PT cells; [6]) was 29.5 µM and the IC50 (SUM149PT cells; [7]) was 610 µM.
For “KKKRKVTDSQQPLVAPAWVYCTRYSDRPS (SEQ ID NO: 20) (engineered from homo sapiens) [iPep624W1ΔA, first tryptophan mutated to alanine]”, the “activity / IC50 as compared with the wt iPep624” value (SUM149PT cells; SUM149PT) was “retained activity but significantly increased the IC50”.
O=C(CC1NCCCC1O)Cn1cnc2cc(Br)c(Cl)cc2c1=O (centres unmarked) [halofuginone] was tested, and the IC50 ([1]; SUM149PT-EN1 cells, 500 nM iPep, 48 hours, read-out: IC50 of halofuginone in combination with iPep624) was 0.00049 µM, the “breast cancer cell death” value (SUM149PT cells; SUM149PT, single agent) was “induced very potent breast cancer cell death” and the IC50 ([2]; SUM149PT-Control cells, 500 nM iPep, 48 hours, read-out: IC50 of halofuginone in combination with iPep624) was 0.041 nM.
In the case of “KKKRKVTDSQQPLVGAAGAGCTRYSDRPS (SEQ ID NO: 18) (engineered from homo sapiens) [iPep624ΔHEX]”, the cell viability (SUM149PT cells; SUM149PT, 0-100 μM peptide, 8 hours) is reported as “did not show significant changes in cell viability” and the “cell viability of any of the breast cancer cell lines” value [3] is reported as “did not significantly affect cell viability”.
In the case of “KKKRKVTDSQQPLVWPAAVYCTRYSDRPS (SEQ ID NO: 19) (engineered from homo sapiens) [iPep624W2ΔA, second tryptophan mutated to alanine]”, the “activity / IC50 as compared with the wt iPep624” value (SUM149PT cells; SUM149PT) is reported as “retained activity but significantly increased the IC50”.
